From ChEMBL document CHEMBL1142522, “Hedgehog/GLI-mediated transcriptional inhibitors from Zizyphus cambodiana” (Bioorg Med Chem, 2008) come the findings set out here.

Calls of active or inactive are those of the source. No cut-off for these calls is given here.

In assay [1] the test system is PANC-1. Put plainly: Cytotoxicity against human PANC1 after 24 hrs by fluorometric microculture cytotoxicity assay. It is filed as functional, cell-based. The following applies: PANC-1, 24 h.
The target of assay [2] is T1, Zinc finger protein GLI1 (Homo sapiens) (UniProt P08151).
T1 sequence (whole entry): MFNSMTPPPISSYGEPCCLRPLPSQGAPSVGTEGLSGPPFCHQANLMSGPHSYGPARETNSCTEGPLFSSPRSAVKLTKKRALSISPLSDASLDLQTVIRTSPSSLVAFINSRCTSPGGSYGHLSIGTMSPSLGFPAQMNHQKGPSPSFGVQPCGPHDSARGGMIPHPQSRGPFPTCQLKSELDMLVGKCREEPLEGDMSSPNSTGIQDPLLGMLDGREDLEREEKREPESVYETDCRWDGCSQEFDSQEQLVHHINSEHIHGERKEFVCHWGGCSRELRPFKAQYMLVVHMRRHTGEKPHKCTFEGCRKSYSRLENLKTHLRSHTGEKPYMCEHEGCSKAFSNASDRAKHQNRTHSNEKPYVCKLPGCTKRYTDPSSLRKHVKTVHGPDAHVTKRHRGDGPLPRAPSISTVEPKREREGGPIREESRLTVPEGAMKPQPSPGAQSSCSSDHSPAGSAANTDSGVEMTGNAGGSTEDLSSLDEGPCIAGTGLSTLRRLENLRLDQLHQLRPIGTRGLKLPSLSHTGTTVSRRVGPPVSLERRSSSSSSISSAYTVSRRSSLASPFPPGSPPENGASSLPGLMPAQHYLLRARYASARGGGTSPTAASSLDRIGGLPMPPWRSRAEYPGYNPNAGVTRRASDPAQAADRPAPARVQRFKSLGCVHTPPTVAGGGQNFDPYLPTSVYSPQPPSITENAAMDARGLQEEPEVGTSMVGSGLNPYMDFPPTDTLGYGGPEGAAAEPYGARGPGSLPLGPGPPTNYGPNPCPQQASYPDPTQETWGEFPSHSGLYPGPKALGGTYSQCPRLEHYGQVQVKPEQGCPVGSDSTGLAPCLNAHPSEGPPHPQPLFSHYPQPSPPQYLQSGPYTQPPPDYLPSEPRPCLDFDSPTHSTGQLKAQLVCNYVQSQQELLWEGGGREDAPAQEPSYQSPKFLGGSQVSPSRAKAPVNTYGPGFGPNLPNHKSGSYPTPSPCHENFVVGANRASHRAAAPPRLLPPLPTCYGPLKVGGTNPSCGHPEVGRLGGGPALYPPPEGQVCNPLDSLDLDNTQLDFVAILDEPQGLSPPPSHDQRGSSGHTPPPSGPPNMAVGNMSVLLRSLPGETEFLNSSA
Briefly: Inhibition of GLI1-mediated transcriptional activity in human HaCaT cells by luciferase based reporter gene assay. The class given is cell-based.

Assay [3] concerns DU-145. Put plainly: Cytotoxicity against human DU145 cells after 24 hrs by fluorometric microculture cytotoxicity assay. The class given is functional, cell-based. As to conditions: DU-145, 24 h.
Assay [4] is described as follows: Cytotoxicity against mouse C3H10T1/2 cells after 24 hrs by fluorometric microculture cytotoxicity assay. It is filed as cell-based. As to conditions: C3H 10T1/2, 24 h.
Assay [5] deals with T1, Zinc finger protein GLI1 (Homo sapiens). Put plainly: Effect on Hh/GLI-mediated transcription in human PANC1 assessed as decrease in BCL2 protein expression by Western blot. It is filed as cell-based. The following applies: PANC-1.
The target is the same in assay [6]. Put plainly: Effect on Hh/GLI-mediated transcription in human PANC1 assessed as decrease in […] protein expression by Western blot. It is filed as cell-based. The following applies: PANC-1.
For assay [7] the target is unchanged. Briefly: Effect on Hh/GLI-mediated transcription in human HaCaT cells assessed as reduction of BCL2 protein expression by Western blot. It is filed as cell-based.
Assay [8] has the same target. Put plainly: Effect on Hh/GLI-mediated transcription in human HaCaT cells assessed as reduction of PTCH protein expression by Western blot. It is filed as cell-based.
A further assay relates to HaCaT. Put plainly: Decrease in GLI1 protein expression in human HaCaT cells by Western blot. The class given is functional, cell-based.
For assay [9], the system named is DU-145. Briefly: Cytotoxicity against human DU145 cells at 100 uM after 24 hrs by fluorometric microculture cytotoxicity assay. The class given is functional, cell-based.
For assay [10], the system named is PANC-1. Briefly: Cytotoxicity against human PANC1 at 100 uM after 24 hrs by fluorometric microculture cytotoxicity assay. It is filed as functional, cell-based.
Assay [11] deals with T1, Zinc finger protein GLI1 (Homo sapiens). Put plainly: Inhibition of GLI-mediated […] mRNA production in human PANC1 cells by RT-PCR analysis. The class given is cell-based. The following applies: PANC-1.

For `C=C(C)[C@@H]1CC[C@]2(C(=O)O)CC[C@]3(C)[C@H](CC[C@@H]4[C@@]5(C)C[C@@H](O)[C@H](O)C(C)(C)[C@@H]5CC[C@]43C)[C@@H]12` [ALPHITOLIC ACID], the figures for the IC50 (in the assay with PANC-1 [1]; with DU-145 [3]; in assay [4]) were 41 µM, 70 µM and 145 µM, respectively. In addition, the Activity result in assay [2] was “Dose-dependent effect”.
As for `C=C(C)[C@@H]1CC[C@]2(C(=O)O)CC[C@]3(C)[C@H](CC[C@@H]4[C@@]5(C)CC[C@H](O)C(C)(C)[C@@H]5CC[C@]43C)[C@@H]12` [BETULINIC ACID], the result (in assay [5]; in [6]; in [7]; in assay [8]; in the assay on HaCaT) was Active. For the same compound, the IC50 is 44 µM in the assay on PANC-1 [1], 37 µM in the assay with DU-145 [3] and 82 µM in assay [4]. Moreover, the Activity entry in assay [2] was “Dose-dependent effect”.
Turning to `C=C(C)[C@@H]1CC[C@]2(C(=O)O)CC[C@]3(C)[C@H](CC[C@@H]4[C@@]5(C)[C@H](CO)[C@@H](O)C(C)(C)[C@@H]5CC[C@]43C)[C@@H]12` [CEANOTHANOLIC ACID], the result in the assay with DU-145 [9] and in the assay with PANC-1 [10] was inactive. Further, the IC50 (in the assay on PANC-1 [1]; in the assay on DU-145 [3]; in assay [4]) was > 200 µM each time.
As to `C=C(C)[C@@H]1CC[C@]2(C(=O)O)CC[C@]3(C)[C@H](CC[C@@H]4[C@@]5(C)[C@@H](C(=O)O)[C@H](O)C(C)(C)[C@@H]5CC[C@]43C)[C@@H]12` [CEANOTHIC ACID], the result with DU-145 [9] and in the assay on PANC-1 [10] was inactive. In addition, the values for the IC50 (in the assay on PANC-1 [1]; in the assay with DU-145 [3]; in [4]) were 195 µM, > 200 µM and > 200 µM, respectively.
In the case of `C=C(C)[C@@H]1CC[C@]2(C(=O)O)CC[C@]3(C)[C@H](CC[C@@H]4[C@@]5(C)[C@H](C=O)[C@@H](O)C(C)(C)[C@@H]5CC[C@]43C)[C@@H]12` [COLUBRINIC ACID], the result in [5] and in assay [6] was Active. The IC50 in the assay with PANC-1 [1] was determined as 43 µM; with DU-145 [3], 78 µM; in [4], 167 µM. Further, the Activity result in assay [2], in assay [11], in [7] and in assay [8] was “Dose-dependent effect” in each case.
